The IC50 is the concentration that gives 50% inhibition.

Each structure is given as a SMILES string. Positions of bridges follow the written chain, without caps; N, C: chain ends. Non-standard residues stand in square brackets, D forms with d. Residues, ends and D or L forms follow the SMILES beside them. *: point of attachment. hPhe(3-Cl-4-CF3) = N[C@@H](CCc1ccc(C(F)(F)F)c(Cl)c1)C(=O)O; hPhe(3-F,4-CF3) = N[C@@H](CCc1ccc(C(F)(F)F)c(F)c1)C(=O)O; 3Oxa8azabicyclo(3.2.1)octane = C1CC2COCC1N2*; NMePhe(4-Cl) = CN[C@@H](Cc1ccc(Cl)cc1)C(=O)O; NMePhe(4-Me) = CN[C@@H](Cc1ccc(C)cc1)C(=O)O; NMePhe(4-I) = CN[C@@H](Cc1ccc(I)cc1)C(=O)O; NMeGly(cPent) = CN[C@H](C(=O)O)C1CCCC1; NMe3Pal = CN[C@@H](Cc1cccnc1)C(=O)O; NMeCha = CN[C@@H](CC1CCCCC1)C(=O)O; NMeChg = CN[C@H](C(=O)O)C1CCCCC1; NMeI = CC[C@H](C)[C@H](NC)C(=O)O; NMeD = CN[C@@H](CC(=O)O)C(=O)O; NMeHpra = C#CCC[C@H](NC)C(=O)O; NMeL = CN[C@@H](CC(C)C)C(=O)O; NEtAla = CCN[C@@H](C)C(=O)O; NMeNva = CCC[C@H](NC)C(=O)O; NMeV = CN[C@H](C(=O)O)C(C)C; d(β3hA) = C[C@@H](N)CC(=O)O; NMeA = CN[C@@H](C)C(=O)O; Piperidide = C1CCN(*)CC1; Ac5c = NC1(C(=O)O)CCCC1; Aze = O=C(O)[C@@H]1CCN1; Sar = CNCC(=O)O

The experiment concerns Human pancreatic cancer cell line AsPC-1. The experiment in a line: Measurement of AsPC-1 cell growth inhibition (AsPC-1 CGI). It is filed as cell-based. To be noted: 96 h. In a few lines: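 AsPC-1 cells in 15% FBS RPMI-1640 were exposed to test compound for 96 hours at 37° C, with CellTiter-Glo as endpoint.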
Take `C#CCC[C@H]1C(=O)N[C@@H]([C@@H](C)CC)C(=O)N(C)[C@@H](C)C(=O)N2CC[C@H]2C(=O)N(C)[C@@H](Cc2ccc(I)cc2)C(=O)N(C)CC(=O)N[C@@H](CCc2ccc(C(F)(F)F)c(Cl)c2)C(=O)N2CCC[C@H]2C(=O)NC2(CCCC2)C(=O)N(C)[C@@H](C2CCCCC2)C(=O)N[C@H](C)CC(=O)N1C` [Compound 971] (cyclo([Ac5c][NMeChg][d(β3hA)][NMeHpra]I[NMeA][Aze][NMePhe(4-I)][Sar][hPhe(3-Cl-4-CF3)]P)): the IC50 lay within 100 to 500 nM. Molecule `CCC[C@H]1C(=O)N(C)[C@H](C(=O)N2CCCCC2)CC(=O)N(C)[C@@H](CC(C)C)C(=O)N[C@@H]([C@@H](C)CC)C(=O)N(C)[C@@H](C)C(=O)N2CC[C@H]2C(=O)N(C)[C@@H](CC2CCCCC2)C(=O)N(C)CC(=O)N[C@@H](CCc2ccc(C(F)(F)F)c(Cl)c2)C(=O)N2CCC[C@H]2C(=O)NC2(CCCC2)C(=O)N1C` [Compound 995] ([NMeL]I[NMeA][Aze][NMeCha][Sar][hPhe(3-Cl-4-CF3)]P[Ac5c][NMeNva][NMeD]-Piperidide; lactam N-11) registered an IC50 of 100 to 500 nM. `CC[C@H](C)[C@@H]1NC(=O)[C@H](CC(C)C)N(C)C(=O)C[C@@H](C(=O)N2C3CCC2COC3)N(C)C(=O)[C@H]([C@@H](C)CC)N(C)C(=O)C2(CCCC2)NC(=O)[C@@H]2CCCN2C(=O)[C@H](CCc2ccc(C(F)(F)F)c(Cl)c2)NC(=O)CN(C)C(=O)[C@H](C2CCCC2)N(C)C(=O)[C@@H]2CCN2C(=O)[C@H](C)N(C)C1=O` [Compound 1002] ([NMeL]I[NMeA][Aze][NMeGly(cPent)][Sar][hPhe(3-Cl-4-CF3)]P[Ac5c][NMeI][NMeD]-{3Oxa8azabicyclo(3.2.1)octane}; lactam N-11) gave a 50% inhibitory concentration (IC50) of 20 to 50 nM. Consider `CCC[C@H]1C(=O)NC2(CCCC2)C(=O)N(C)[C@@H](C2CCCCC2)C(=O)N(C)[C@H](C(=O)N2CCCCC2)CC(=O)N(C)[C@@H](CC(C)C)C(=O)N[C@@H]([C@@H](C)CC)C(=O)N(C)CC(=O)N(C)CC(=O)N(C)[C@@H](CC2CCCCC2)C(=O)N(C)CC(=O)N[C@@H](CCc2ccc(C(F)(F)F)c(Cl)c2)C(=O)N1C` [Compound 1005] ([NMeL]I[Sar][Sar][NMeCha][Sar][hPhe(3-Cl-4-CF3)][NMeNva][Ac5c][NMeChg][NMeD]-Piperidide; lactam N-11), for which the IC50 was 100 to 500 nM. In the case of `CC[C@H](C)[C@@H]1NC(=O)[C@H](CC(C)C)N(C)C(=O)C[C@@H](C(=O)N2CCCCC2)N(C)C(=O)[C@H](C2CCCC2)N(C)C(=O)C2(CCCC2)NC(=O)[C@@H]2CCCN2C(=O)[C@H](CCc2ccc(C(F)(F)F)c(F)c2)NC(=O)CN(C)C(=O)[C@H](Cc2ccc(C)cc2)N(C)C(=O)[C@@H]2CCN2C(=O)[C@H](C)N(C)C1=O` [Compound 1008] ([NMeL]I[NMeA][Aze][NMePhe(4-Me)][Sar][hPhe(3-F,4-CF3)]P[Ac5c][NMeGly(cPent)][NMeD]-Piperidide; lactam N-11), the IC50 is 20 to 50 nM. The molecule `CC[C@H](C)[C@@H]1NC(=O)[C@H](C)N(C)C(=O)C[C@@H](C(=O)N2CCCCC2)N(C)C(=O)[C@H](C2CCCCC2)N(C)C(=O)C2(CCCC2)NC(=O)[C@H](Cc2cccnc2)N(C)C(=O)[C@H](CCc2ccc(C(F)(F)F)c(Cl)c2)NC(=O)CN(C)C(=O)[C@H](CC2CCCCC2)N(C)C(=O)CN(C)C(=O)CN(C)C1=O` [Compound 1012] ([NMeA]I[Sar][Sar][NMeCha][Sar][hPhe(3-Cl-4-CF3)][NMe3Pal][Ac5c][NMeChg][NMeD]-Piperidide; lactam N-11) showed an IC50 of 100 to 500 nM. With `CC[C@H](C)[C@@H]1NC(=O)[C@H](C(C)C)N(C)C(=O)C[C@@H](C)NC(=O)[C@H](CC(C)C)N(C)C(=O)C2(CCCC2)NC(=O)[C@H](CC(C)C)N(C)C(=O)[C@H](CCc2ccc(C(F)(F)F)c(Cl)c2)NC(=O)CN(C)C(=O)[C@H](Cc2ccc(Cl)cc2)N(C)C(=O)CN(C)C(=O)CN(C)C1=O` [Compound 1014] (cyclo([Ac5c][NMeL][d(β3hA)][NMeV]I[Sar][Sar][NMePhe(4-Cl)][Sar][hPhe(3-Cl-4-CF3)][NMeL])) the figure was 100 to 500 nM. Molecule `CC[C@H](C)[C@@H]1NC(=O)[C@H](CC(C)C)N(C)C(=O)C[C@@H](C)NC(=O)[C@H](C(C)C)N(C)C(=O)C2(CCCC2)NC(=O)[C@@H]2CCCN2C(=O)[C@H](CCc2ccc(C(F)(F)F)c(Cl)c2)NC(=O)CN(C)C(=O)[C@H](Cc2ccc(Cl)cc2)N(C)C(=O)[C@@H]2CCN2C(=O)[C@H](C)N(C)C1=O` [Compound 1018] (cyclo([Ac5c][NMeV][d(β3hA)][NMeL]I[NMeA][Aze][NMePhe(4-Cl)][Sar][hPhe(3-Cl-4-CF3)]P)) had an IC50 of 100 to 500 nM.

`CC[C@H](C)[C@@H]1NC(=O)[C@H](CC(C)C)N(C)C(=O)C[C@@H](C)NC(=O)[C@H](C2CCCC2)N(C)C(=O)C2(CCCC2)NC(=O)[C@@H]2CCCN2C(=O)[C@H](CCc2ccc(C(F)(F)F)c(Cl)c2)NC(=O)CN(C)C(=O)[C@H](Cc2ccc(C)cc2)N(C)C(=O)[C@@H]2CCN2C(=O)[C@H](C)N(CC)C1=O` [Compound 1023] (cyclo([Ac5c][NMeGly(cPent)][d(β3hA)][NMeL]I[NEtAla][Aze][NMePhe(4-Me)][Sar][hPhe(3-Cl-4-CF3)]P)) displayed an IC50 of 50 to 100 nM.

(Values after patent publication US12371454B2, “Cyclic peptide compound having Kras inhibitory action” (priority 2019, dated 2025).)
